This passage reports TGI results from PubChem BioAssay (NCI).

Structures are written as SMILES.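 Following 48 hours of exposure in 96-well plates, responses at five concentrations were used to interpolate endpoints linearly. TGI is the concentration that stops growth completely.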

Test systems include HOP-62 NSCLC; SN12C renal; RPMI-8226 leukemia; SF-539 CNS; OVCAR-4 ovarian; HT29 colon; HL-60(TB) leukemia; HCC-2998 colon; NCI/ADR-RES ovarian; MDA-MB-435; DU-145 prostate; MDA-MB-231 breast.
What all share (assay): NCI anticancer screen, dose series, 48 h

Take `COc1cc([C@@H]2OCC3C(c4ccc5c(c4)OCO5)OCC32)cc(OC)c1OC` (some centres not stated): the TGI in the test with HOP-62 NSCLC, in the test with SN12C renal, in the test on RPMI-8226 leukemia, with SF-539 CNS, with OVCAR-4 ovarian and in the test with HT29 colon was > 100 µM each time. Also, the TGI in the test on HL-60(TB) leukemia and in the test on HCC-2998 colon was > 100 µM each time.

`O=C1CCC23CC(C=CC=C12)n1c(=O)n(-c2ccccc2)c(=O)n13` (configuration not stated): the TGI in the test on HOP-62 NSCLC was > 100 µM; in the test with SN12C renal, > 100 µM; in the test on RPMI-8226 leukemia, > 100 µM; with SF-539 CNS, > 100 µM; with NCI/ADR-RES ovarian, > 81.2 µM; in the test on OVCAR-4 ovarian, > 100 µM. In addition, the TGI in the test with HT29 colon was > 100 µM; in the test on HL-60(TB) leukemia, > 80.5 µM; with HCC-2998 colon, > 100 µM.

`C[C@]12CC[C@H](O)CC1=CC[C@@H]1C2CC[C@]2(C)C(=O)N(N)C(=O)CC12` (some centres not stated): the TGI in the test with HOP-62 NSCLC, with SN12C renal, with RPMI-8226 leukemia, in the test on SF-539 CNS, in the test on OVCAR-4 ovarian and in the test with HT29 colon was > 100 µM in each case. Further, the TGI in the test with HL-60(TB) leukemia and in the test on HCC-2998 colon was > 100 µM throughout.

With `N#CN=C(N(Cc1ccccc1)Cc1ccccc1)N(Cc1ccccc1)Cc1ccccc1`, the TGI is > 100 µM in the test on HOP-62 NSCLC; > 100 µM in the test on SN12C renal; > 100 µM in the test on RPMI-8226 leukemia; > 100 µM with SF-539 CNS; > 100 µM in the test on HT29 colon; 83.8 µM in the test on HL-60(TB) leukemia. In addition, the TGI with HCC-2998 colon is > 100 µM.

Consider `Cc1nc(C(N)=S)sc1/C(CC(=O)C(=O)Nc1cccc2ccc(O)cc12)=N\NC(=O)c1ccncc1`, for which the TGI in the test with HOP-62 NSCLC, with SN12C renal, in the test with SF-539 CNS, in the test with NCI/ADR-RES ovarian, with OVCAR-4 ovarian and with MDA-MB-435 was > 100 µM throughout. Moreover, the TGI with DU-145 prostate, in the test on HT29 colon, with MDA-MB-231 breast, in the test with HL-60(TB) leukemia and in the test on HCC-2998 colon was > 100 µM throughout.

On to `[N-]=[N+]=Nc1cc(=O)oc2ccccc12`, for which the TGI with HOP-62 NSCLC, in the test with SN12C renal, in the test on RPMI-8226 leukemia, with SF-539 CNS, in the test on OVCAR-4 ovarian and with HT29 colon was > 100 µM throughout. The TGI with HL-60(TB) leukemia is > 100 µM.

Take `CCOC(=O)N1CCC2(CC1)C[C@](C)(C(C)=O)C(C)O2` (some centres not stated): the TGI in the test with HOP-62 NSCLC, with RPMI-8226 leukemia, in the test with SF-539 CNS, in the test on NCI/ADR-RES ovarian, in the test with OVCAR-4 ovarian and in the test with MDA-MB-435 was > 100 µM throughout. Moreover, the TGI in the test on HT29 colon is > 100 µM; in the test with MDA-MB-231 breast, > 100 µM; with HL-60(TB) leukemia it was 17.8 µM; with HCC-2998 colon it was > 100 µM.

Consider `Cc1cc(O)c2c(=O)c3ccccc3[nH]c2c1`, for which the TGI in the test on HOP-62 NSCLC is 71.2 µM; with SN12C renal, > 100 µM; in the test on RPMI-8226 leukemia it was 41 µM; in the test with SF-539 CNS, 33 µM; with NCI/ADR-RES ovarian, > 100 µM; in the test on OVCAR-4 ovarian it was 75.8 µM. Moreover, the TGI was > 100 µM in the test with MDA-MB-435; > 100 µM in the test on DU-145 prostate; 38 µM in the test on HT29 colon; > 100 µM in the test with MDA-MB-231 breast; 64.7 µM with HL-60(TB) leukemia; > 100 µM with HCC-2998 colon.

Consider `CNC(=O)C(C)C1CCC2(C)C=CC(=O)C(C)=C2C1O` (configuration not stated), for which the TGI with HOP-62 NSCLC was > 100 µM; in the test with SN12C renal, > 100 µM; in the test with RPMI-8226 leukemia, > 100 µM; in the test on SF-539 CNS, > 100 µM; in the test with NCI/ADR-RES ovarian, > 71.7 µM; with OVCAR-4 ovarian, > 100 µM. The TGI with HT29 colon, in the test with HL-60(TB) leukemia and in the test with HCC-2998 colon was > 100 µM each time.

Take `CC(=O)O[C@H]1C(=O)[C@]2(C)[C@@H](OC(=O)OCCC(O)CO)C[C@H]3OC[C@@]3(OC(C)=O)[C@H]2[C@H](OC(=O)c2ccccc2)[C@]2(O)C[C@H](OC(=O)[C@H](O)[C@@H](NC(=O)c3ccccc3)c3ccccc3)C(C)=C1C2(C)C` (some centres not stated): the TGI in the test on HOP-62 NSCLC was 21.6 µM; in the test on SN12C renal, 19.8 µM; in the test with SF-539 CNS, 0.0297 µM; in the test with NCI/ADR-RES ovarian, > 100 µM; in the test with OVCAR-4 ovarian, > 94.3 µM; in the test on MDA-MB-435, < 0.01 µM. Further, the TGI in the test on DU-145 prostate is 0.0657 µM; in the test on HT29 colon it was 0.526 µM; with MDA-MB-231 breast, 3.7 µM; in the test on HL-60(TB) leukemia, < 0.0106 µM; with HCC-2998 colon, 0.32 µM.

Regarding `Cc1cccc2c(=O)cc(-c3ccccc3)[nH]c12`, the TGI with HOP-62 NSCLC was 42.6 µM; with SN12C renal, > 100 µM; in the test on RPMI-8226 leukemia, > 100 µM; in the test with SF-539 CNS, 37.1 µM; in the test with OVCAR-4 ovarian, 35.7 µM; with HT29 colon, > 100 µM. The TGI with HL-60(TB) leukemia is > 100 µM; with HCC-2998 colon, 18.1 µM.

For `CCCN=C1CCN(Cc2ccccc2)c2ccccc2N1`, the TGI in the test with HOP-62 NSCLC was > 100 µM; in the test on SN12C renal it was > 100 µM; with RPMI-8226 leukemia it was 28.9 µM; with NCI/ADR-RES ovarian, 34.4 µM; in the test with OVCAR-4 ovarian it was > 100 µM; in the test with MDA-MB-435 it was 45 µM. Also, the TGI was > 100 µM with DU-145 prostate, 90.1 µM in the test with HT29 colon, 59.9 µM in the test on MDA-MB-231 breast and 37.3 µM with HL-60(TB) leukemia.

For the compound `CCN(CC)CCC(=O)Nc1ccc2c(c1)C(=O)c1ccc(NC(=O)CCN(CC)CC)cc1C2=O`, the TGI worked out at 17.6 µM with HOP-62 NSCLC; 13.4 µM in the test on SN12C renal; 19.9 µM in the test on RPMI-8226 leukemia; 15.3 µM in the test on SF-539 CNS; 18.9 µM in the test on OVCAR-4 ovarian; 12.5 µM with HT29 colon. The TGI is 16.7 µM in the test with HL-60(TB) leukemia and > 100 µM in the test with HCC-2998 colon.

`CC(C)CCCCCCCCCCCCC(=O)NCC(=O)NC1C(C)OC(Nc2ncnc3c2ncn3C)C(O)C1O` (configuration not stated): the TGI in the test on HOP-62 NSCLC is > 34.2 µM; in the test with SN12C renal it was > 100 µM; with RPMI-8226 leukemia it was > 100 µM; with SF-539 CNS it was 13.1 µM; in the test on NCI/ADR-RES ovarian, > 100 µM; with OVCAR-4 ovarian it was > 100 µM. Besides, the figures for the TGI with HT29 colon, with HL-60(TB) leukemia and in the test on HCC-2998 colon were > 100 µM, 6.08 µM and 11.6 µM, respectively.
